Experimental findings from US20130280755A1, “THERAPEUTIC METHODS FOR SOLID DELIVERY” (Fred Hutchinson Cancer Research Center, priority 2010, published 2013) are described below.

One test concerns lymphoma tumor. The test can be described thus: Doxorubicin delivered to a lymphoma tumor with a needle array; excised tumor slices imaged by fluorescence and brightfield microscopy. It is filed as in vivo. The source says:
Doxorubicin was delivered to a lymphoma tumor using a needle array of the method. The tumor was then excised and sectioned. […] Regions of doxorubicin fluorescence and cell death are localized to a zone within the tumor slice, reflecting spatially constrained doxorubicin delivery.

In another test the test system is mouse tumor. The test can be described thus: Mouse tumor injected with doxorubicin and control; fluorescent imaging of the apoptosis signal. It is filed as in vivo. The settings on record: FIG. 14; excitation 640 nm, emission 720 nm of the dye; versus control injection. As to the method: FIG. 14 depicts the use of various indicator dyes according to the method, to monitor spatially restricted delivery of compounds and resulting localized effects on regions of a tumor. A mouse tumor was injected with 1. doxorubicin; and 2. a control. Panel A illustrates excitation at 640 nm and emission at 800 nm of the dye. Panel B illustrates the doxorubicin signal (3.) observed after excitation at 500 nm and emission at 600 nm of doxorubicin. Panel C illustrates an apoptosis signal (4.) observed after excitation at 640 nm and emission at 720 nm of the dye.

In test [1] the test system is Intracranial medulloblastoma model (conditional Patchedl null) mice. The test can be described thus: Survival of intracranial medulloblastoma model mice. The test is classed as in vivo, mouse. The conditions noted are these: FIG. 13; 20 mg/kg daily; monitored for 50 days; versus vehicle only. As for the experimental part:
The results of the in vivo experiment depicted in FIG. 12 predicted that Shh antagonists would have a positive effect on a mouse model of cancer. Intracranial medulloblastoma model (conditional Patchedl null) mice used in this experiment develop medulloblastoma with an early onset and 100% penetrance. Accordingly, mice were injected daily with 20 mg/kg of either A) vehicle plus IPI-926 (n=12); or B) vehicle only (n=11). The mice were monitored for 50 days for survival, and the results depicted in FIG. 13.

`COc1cccc2c1C(=O)c1c(O)c3c(c(O)c1C2=O)C[C@@](O)(C(=O)CO)C[C@@H]3O[C@H]1C[C@H](N)[C@H](O)[C@H](C)O1` [Doxorubicin]: the “cell death in tumor slice, relative to doxorubicin fluorescence” value in the test on lymphoma tumor (FIG. 8, one tumor slice, needle array delivery) is recorded as “doxorubicin fluorescence overlaps with the region of dead cells”. For the same molecule, the “cell death across tumor depths” value in the test with lymphoma tumor (FIG. 9, three cross-sectional slices from different depths) is listed as “Cell death was observed in a localized area across the three tumor depths”. Also, the apoptosis signal entry in the test on mouse tumor is “apoptosis overlaps with the region that received doxorubicin”.

Turning to `CC1=C2C[C@H]3[C@@H](CC[C@@H]4C[C@H](NS(C)(=O)=O)CC[C@@]43C)[C@@H]2CC[C@@]2(C1)O[C@@H]1C[C@H](C)CN[C@H]1[C@H]2C` [IPI-926], the survival entry in test [1] was “significantly increased survival”.
